Results from patent US20210401867A1, “PHOTOSENSITIZERS AND METHOD OF TREATING CANCER USING THE SAME” (Cheng-Wen Wu, priority 2018, published 2021).

Columns and labels:
FaDu-RFP+ cells = assay: in vivo IdU incorporation rate in FaDu-RFP+ solid tumors (flow cytometry); design: species or system mouse
From the text: An injection concentration of IdU is selected based on a flow cytometry analysis on the incorporation rate of IdU in tumor cells. Referring to FIG. 13A, a schematic diagram of an in vivo animal experiment for determining an injection concentration of IdU is provided in accordance with an exemplary embodiment of the present disclosure. FaDu cells are marked with RFP (red fluorescent protein) and […]. The malignant solid tumors formed by FaDu-RFP+ cells on the tumorigenic mouse are injected with different concentrations of IdU: 100 μg, 50 μg, 20 μg, 10 μg, 5 μg, or 2 μg per 100 μl PBS. 4 hours later, the tumorigenic mouse are sacrificed and the solid tumors are isolated to single cells. The single cells from the solid tumors are then subjected to antibody staining and flow cytometry analyses. Referring to FIG. 13B, a flow cytometry result of the experiments described by FIG. 13A, is provided in accordance with an exemplary embodiment of the present disclosure. The horizontal axis represents the RFP signals, and the vertical axis represents the GFP signals. […] Only 6.232% of FaDu cells are detected with GFP in the left panel of FIG. 13B. The right panel of FIG. 13B are FaDu cells treated with 50 μg of IdU, an area 132 is FaDu cells detected with GFP signals. 19.088% of FaDu cells are detected with GFP signals in the right panel of FIG. 13B. […]

CASPASE-3 = assay: immunohistochemical (IHC) examination of subcutaneous FaDu tumor cells; format: in vivo, mouse; conditions: 1 day after treatment
Experimental: One day after the tumorigenic mouse are treated with IdU, or the combination of IdU and 4.5 Gy of NR/RS2000, the subcutaneous FaDu tumor cells are subjected to immunohistochemical (IHC) examination. […] The control group in FIGS. 15A-15F or FIGS. 16A-16B is the subcutaneous FaDu tumor cells without any treatment. […] CASPASE-3 is directly involved in apoptosis, therefore the combination of IdU and NR is proven to induce tumor growth inhibition.

γH2AX [1] = assay: Western blotting for pATM, γH2AX and c-CASP3 in FaDu cells; format: cell-based, human; conditions: 10 μM IdU and 2 Gy of NR, 30 minutes after irradiation, among all treatments
Experimental: To investigate the mechanism associated with the combination of IdU and NR in the Auger molecular therapy, molecular markers involving DNA damage and apoptosis are analyzed. In vitro FaDu cells are treated with 10 μM of IdU, and irradiated by 2Gy of NR or RS2000. 30 minutes after above treatments, FaDu cells are subjected to Western blot to determine the expression of several proteins relevant to DNA damage and apoptosis: phosphor-ATM (pATM) is a protein kinase activated by DNA double-strand-breaks (DSBs), and it phosphorylates several key factors to initiate DNA damage checkpoint and repair; γH2AX is one of the targets of pATM, and it forms the foundation of chromatin-based signaling cascades at DSBs sites, and it is widely considered as a highly specific and sensitive marker for quantitative evaluation of DSB; and CASP3 is a marker for increased apoptosis, wherein c-CASP3 is a cleaved CASP3 formed when apoptotic signals are present in the cell. The subcutaneous tumor also subjected to Western blot 3 days after the above treatments.
FIGS. 17A and 17B are results of Western blotting for protein expression levels of pATM, γH2AX, and c-CASP3, in accordance with exemplary embodiments of the present disclosure. FIG. 17A is the result at 30 minutes after irradiation, and FIG. 17B is the result at 3 days after irradiation, wherein β-ACTIN are served as an internal control in both figures. […]

γH2AX [2] = assay: p-γH2AX immunofluorescent staining of FaDu cells; format: cell-based, human; conditions: 1 μM BrdU with 1 Gy of 14 keV NR
Experimental: Referring to FIGS. 23A and 23B, p-γH2AX immunofluorescent staining for evaluating DNA damages induced by BrdU, RS2000, BrdU with RS2000, NR, and NR with BrdU, are provided in accordance with exemplary embodiments of the present disclosure. γH2AX is the histone H2AX protein with phosphorylated amino acid on serine 139. γH2AX is a specific marker for DNA DSBs. FaDu cells are seeded on a chamber slides, and are fixed with −20° C., 100% ethanol under room temperature for 15 minutes. The fixed chamber slides are washed with PBS, and permeablized with 0.1% Triton X-100 for 10 minutes. Then, the chamber slides are blocked with 5% milk in PBS for 30 minutes at room temperature, and incubated with primary antibody (anti-γH2AX) overnight at 4° C. FaDu cells in the chamber slides are then washed with PBS, and incubated with secondary antibody which is conjugated by a fluorescent dye for 1 hour at room temperature. The nuclei were countestained with 5 μg/ml of DAPI (4′,6-diamidino-2-phenylindole). The stained FaDu cells are then being mounted and subjected to microscopic examination with a confocal laser scanning microscope (ZEISS LSM780). The number of p-γH2AX are quantified using Metamorph software. […] FIG. 23B is a quantitative result of FIG. 23A. […]

Row | SMILES | IdU incorporation rate among injected concentrations (FaDu-RFP+ cells; 50 μg IdU/100 μl PBS versus 100, 20, 10, 5, 2 μg) | FaDu cells detected with GFP signals (IdU incorporation) (FaDu-RFP+ cells; 50 μg of IdU injected into tumor, 4 hours) | apoptotic cells (IHC, qualitative) (CASPASE-3; IdU and 4.5 Gy of NR, versus other groups) | CASPASE-3 expression in the tumor cells (IHC, quantitative) (CASPASE-3; IdU and NR, versus other treatments) | γH2AX expression (Western blot) (γH2AX [1]) | γH2AX expression (immunofluorescent staining) (γH2AX [2])
1 | O=c1[nH]c(=O)n([C@H]2C[C@H](O)[C@@H](CO)O2)cc1I [IdU, iododeoxyuridine] | best IdU incorporation rate | 19.088% | more apoptotic cells | more pronounced CASPASE-3 expression | most γH2AX expression | –
2 | O=c1[nH]c(=O)n([C@H]2C[C@H](O)[C@@H](CO)O2)cc1Br [BrdU, bromodeoxyuridine] | – | – | – | – | – | significant amount of γH2AX expression
